Test results taken from patent publication US9243247B2, “Composition for promoting apoptosis or inhibiting cell growth, comprising epstein-barr virus microrna” (Catholic University Industry Academic Cooperation Foundation, priority 2011, dated 2016).

Key:
Type in all cases: cell-based
AGS cell strain [1] = experiment: Measurement of apoptosis (Annexin V staining, FACS); conditions: for Relative Apoptotic cell: mimic 10 nM, 10 uM 5-FU 24 h after transfection, then 48 hours, Annexin V, relative to scrambled control (=1), n=9; for effect on cell growth and apoptosis (summary statement): mimics transfected to AGS, tumor cell strain not infected with EBV
Summary of the method: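 EBV-negative AGS cells (2×10^5/well) were transfected with 10 nM synthetic miRNA. Twenty-four hours later they received 10 uM 5-FU for 48 h at 37 °C. The apoptotic cell ratio was measured by PE Annexin V staining and FACS.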

AGS cell strain [2] = experiment: Effect on cell cycle (propidium iodide staining, FACS, sub G1); conditions: for Relative Sub G1: mimic 10 nM, 10 uM 5-FU 24 h after transfection, then 48 hours, relative to scrambled control (=1)
Summary of the method: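 AGS gastric cells (EBV-negative), 2×10^5 per well, were transfected with synthetic miRNA (10 nM). DNA was stained with propidium iodide, and the cell-cycle-altered fraction was measured by FACS.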

AGS cell strain [3] = experiment: Cell growth test (CCK-8 assay) after transfection of BART miRNA mimics; conditions: for Relative Cell Growth: relative to scrambled control (=1)
Summary of the method: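 EBV-negative AGS gastric cells in RPMI1640 with 10% FBS, seeded 1×10^3 cells/well and transfected with synthetic mature BART miRNA mimics (10 nM; dose series 1, 3, 10, 30 nM) via G-fectin. Growth read by CCK-8 after 72 h (or over time), 2 h at 37 °C, absorbance measured.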

[4] = AGS, mimic 10 nM in combination with 10 uM 5-FU
[5] = mimic 10 nM, 72 hours after transfection, n=9

Substance	ratio of early apoptotic cell (AGS cell strain [1]; [4])	ratio of late apoptotic cell (AGS cell strain [1]; [4])	degree of apoptosis, combination with 5-FU versus sum of single treatments (AGS cell strain [1]; AGS, mimic 10 nM plus 10 uM 5-FU)	ratio of early apoptotic cell (AGS cell strain [1]; AGS, mimic 10 nM treated alone)	ratio of late apoptotic cell (AGS cell strain [1]; AGS, mimic 10 nM treated alone)	Relative Apoptotic cell (AGS cell strain [1]; AGS)	Relative Apoptotic cell (AGS cell strain [1]; AGS, listed as 5-5p)	effect on cell growth and apoptosis (summary statement) (AGS cell strain [1])	ratio of sub G1 after the 5-FU treatment (AGS cell strain [2]; mimic 10 nM plus 10 uM 5-FU (Example 6))	Relative Sub G1 (AGS cell strain [2])	Relative Sub G1 (AGS cell strain [2]; listed as 5-5p)	cell growth depending on mimic concentration (onset of inhibition) (AGS cell strain [3]; 1, 3, 10 and 30 nM, 72 hours after transfection)	Relative Cell Growth (AGS cell strain [3]; [5])	Relative Cell Growth (AGS cell strain [3]; mimic 10 nM, 72 hours after transfection, n=9, listed as miR-BART5-5p)	cell growth over time (AGS cell strain [3]; mimic 10 nM, depending on treatment time)	Relative Apoptotic cell (AGS cell strain [1]; AGS, listed as miR-BART4-5p)	Relative Sub G1 (AGS cell strain [2]; listed as miR-BART4-5p)
BART5-5p: EBV BART miRNA mimic, double stranded RNA; sense SEQ NO: 17, antisense SEQ NO: 18 (sense CAAGGUGAAUAUAGCUGCCCAUCG; antisense CGAUGGGCAGCUAUAUUCACCUUG; chemistry not given here)	increased	increased	synergetic effect	increased	increased	1.325	significantly higher	inhibit cell growth and promote apoptosis	greatly increased	2.111	increased	a tendency to inhibit cell growth beginning at 10 nM	0.5231	inhibited cell growth	greatly decreased cell growth	–	–
BART11-5p: EBV BART miRNA mimic, double stranded RNA; sense SEQ NO: 61, antisense SEQ NO: 62 (sense UCAGACAGUUUGGUGCGCUAGUUG; antisense CAACUAGCGCACCAAACUGUCUGA; chemistry not given here)	–	–	–	–	–	1.006	–	–	–	1.081	–	–	1.08	–	–	–	–
BART18-3p: EBV BART miRNA mimic, double stranded RNA; sense SEQ NO: 39, antisense SEQ NO: 40 (sense UAUCGGAAGUUUGGGCUUCGUC; antisense GACGAAGCCCAAACUUCCGAUA; chemistry not given here)	–	–	–	–	–	0.8705	–	–	–	0.9963	–	–	1.393	–	–	–	–
BART4-5p: EBV BART miRNA mimic, double stranded RNA; sense SEQ NO: 5, antisense SEQ NO: 6 (sense GACCUGAUGCUGCUGGUGUGCU; antisense AGCACACCAGCAGCAUCAGGUC; chemistry not given here)	–	–	–	–	–	1.204	–	inhibit cell growth and promote apoptosis	–	1.236	–	–	0.9348	–	–	significantly higher	increased
